Laboratory results as given in PubChem BioAssay (NCI).
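Five compound concentrations were applied to cells in 96-well plates for 48 hours; endpoints were derived by simple linear interpolation of the resulting dose-response curve. GI50 marks 50% less growth. At the TGI there is no net growth.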

What was measured:
Assay in all cases: NCI anticancer screen, dose series, 48 h
NCI-H23 lung = tested on: NCI-H23 lung
CCRF-CEM leukemia = tested on: CCRF-CEM leukemia
U251 CNS = tested on: U251 CNS
ACHN renal = tested on: ACHN renal
SK-MEL-28 melanoma = tested on: SK-MEL-28 melanoma
786-0 renal = tested on: 786-0 renal
CAKI-1 renal = tested on: CAKI-1 renal
SNB-75 CNS = tested on: SNB-75 CNS
PC-3 prostate = tested on: PC-3 prostate
T-47D breast = tested on: T-47D breast

Compound	TGI (NCI-H23 lung) [µM]	TGI (CCRF-CEM leukemia) [µM]	TGI (U251 CNS) [µM]	TGI (ACHN renal) [µM]	TGI (SK-MEL-28 melanoma) [µM]	TGI (786-0 renal) [µM]	GI50 (CAKI-1 renal) [µM]	TGI (CAKI-1 renal) [µM]	GI50 (NCI-H23 lung) [µM]	GI50 (CCRF-CEM leukemia) [µM]	GI50 (U251 CNS) [µM]	GI50 (SNB-75 CNS) [µM]	TGI (SNB-75 CNS) [µM]	GI50 (ACHN renal) [µM]	GI50 (SK-MEL-28 melanoma) [µM]	GI50 (PC-3 prostate) [µM]	TGI (PC-3 prostate) [µM]	GI50 (786-0 renal) [µM]	GI50 (T-47D breast) [µM]	TGI (T-47D breast) [µM]
Cc1ccc(S(=O)(=O)OCOS(=O)(=O)c2ccc(C)cc2)cc1	> 100	> 100	> 100	> 100	> 100	> 100	–	–	–	–	–	–	–	–	–	–	–	–	–	–
COc1cccc(Nc2ncnc3cc(NC(=O)CCl)ccc23)c1	3.92	2.16	1.12	2.34	3.24	3.1	1.06	2.31	1.61	0.392	0.33	0.379	2.28	1.08	1.65	1.12	2.46	1.55	–	–
c1ccc(C2=NOC3C4CCC(C4)C23)cc1 (stereo not given)	> 100	> 100	> 100	> 100	> 100	> 100	–	> 100	–	–	–	–	> 100	–	–	–	–	–	–	–
Cc1ccccc1NC(=O)/C(=N\NC(N)=S)C(C#N)c1ccccc1 (stereo not given)	> 100	> 100	> 100	> 100	> 100	> 100	–	–	–	–	–	–	> 100	–	–	–	–	–	–	–
Cn1[nH]cc2ccc3nc4ccccc4c(=O)c3c21	53.4	> 100	30.7	98.6	> 88.5	> 100	–	86.5	–	–	–	–	94.5	–	–	–	–	–	–	–
CCC12C=CCN(CCc3c([nH]c4ccccc34)/C=C\1)C2 (stereo not given)	> 100	> 100	> 100	> 100	–	> 100	–	> 100	–	–	–	–	> 100	–	–	–	–	–	–	–
O=C(Oc1ccccc1)N(c1ccccc1)c1ccccc1	84.7	> 100	> 100	> 100	–	83.4	12.1	37.6	21.9	37	31.1	19.6	52.5	28.8	–	35.1	> 100	26.2	24.9	> 100
N#C/C(=C\c1c(O)cc(O)cc1O)C(N)=O	> 100	> 100	> 100	> 100	> 100	> 100	–	> 100	–	–	–	–	> 100	–	–	–	–	–	–	–
COc1ccc2c(c1)C(=Nc1ccc(F)c(Cl)c1)c1c-2c(Nc2ccc(F)c(Cl)c2)nc2ccccc12	58	3.99	43.8	> 70.8	> 100	42.8	> 65.8	> 100	19.9	0.804	18.8	–	–	24.1	> 100	> 94.6	> 100	14.9	> 100	> 100
COC(=O)c1c(O)ccc(O)c1C(C(C)=O)C(C)=O	> 100	> 100	> 100	–	> 100	> 100	–	> 100	–	–	–	–	> 100	–	–	–	–	–	–	–
